Results taken from US5457101A (priority 1994, dated 1995).

Assays:
[1] = test system: cloned human 5-HT2B receptor; assay: [3H]5-HT radioligand binding, cloned human 5-HT2B receptor; conditions: statement in words only, no value given
[2] = studies using radiolabelled compound, residues in saliva; format: in vivo
Protocol: For example, in the treatment of adult humans, dosages of from 0.25 to 30 mg, preferably from 1 to 20 mg, per day may be used. A once a day dosage is normally sufficient, although divided doses may be administered. For treatment of gastrointestinal disorders, a dose range of from 1 to 20 mg, preferably 2.5 to 15 mg per day is suitable.

Cc1cc2c(s1)Nc1ccccc1N=C2N1CCN(C)CC1 [2-methyl-4-(4-methyl-1-piperazinyl)-10H-thieno-[2,3-b][1,5]benzodiazepine]
5-HT2B receptor activity [1]: 5-HT2B receptor activity | residues of radiolabelled compound in saliva [2]: detected in the saliva
